Reference: US9969796B2, “Peptides and binding partners therefor” (priority 2013, dated 2018)

Tested on: Drosophila melanogaster
Assay: Drosophila melanogaster (fruit fly) injection model
Format: in vivo
Conditions: 250 μg/ml; for flies recovering after 24 hours: 24 hours post-injection; for signs of paralysis in injected flies: cohort of 20 age-matched flies
Procedure: FIG. 17 is a graph showing the results of an experiment to show Drosophila killing by Ece1-III. The percentage of Drosophila death, 24 hours post-infection of 250 μg/ml His-tagged full length Ece1p, Ece1-II (peptide 2) (FIG. 2), and Ece1-III (peptide 3), into a cohort of 20 age-matched flies.
The applicants also determined the effect of administering full length His-tagged Ece1p and Ece1-III in a Drosophila melanogaster (fruit fly) model.

Molecule | flies recovering after 24 hours | signs of paralysis in injected flies
CC[C@H](C)[C@H](NC(=O)CNC(=O)[C@H](CCSC)NC(=O)[C@@H](NC(=O)[C@@H](NC(=O)CNC(=O)[C@@H](NC(=O)[C@@H](NC(=O)[C@@H](N)CO)[C@@H](C)CC)[C@@H](C)CC)[C@@H](C)CC)[C@@H](C)CC)C(=O)N[C@@H](CC(C)C)C(=O)NCC(=O)N[C@@H](CC(N)=O)C(=O)N[C@H](C(=O)N1CCC[C@H]1C(=O)N[C@@H](CCC(N)=O)C(=O)N[C@H](C(=O)N[C@H](C(=O)N[C@@H](CCC(N)=O)C(=O)N[C@H](C(=O)N[C@H](C(=O)N[C@@H](CCSC)C(=O)N[C@@H](CO)C(=O)N[C@H](C(=O)N[C@H](C(=O)N[C@@H](CCCCN)C(=O)N[C@@H](C)C(=O)N[C@@H](Cc1ccccc1)C(=O)N[C@@H](CCCCN)C(=O)NCC(=O)N[C@@H](CC(N)=O)C(=O)N[C@@H](CCCCN)C(=O)N[C@@H](CCCNC(=N)N)C(=O)O)C(C)C)[C@@H](C)CC)[C@@H](C)CC)[C@@H](C)CC)[C@@H](C)CC)C(C)C)[C@@H](C)CC [Ece1-III] | 10% | displayed signs of paralysis
full length His-tagged Ece1p: His-tagged full length Ece1 protein of C. albicans | 17.5% | displayed signs of paralysis
CC[C@H](C)[C@H](NC(=O)[C@H](C)NC(=O)[C@@H](NC(=O)[C@H](CC(N)=O)NC(=O)[C@H](Cc1ccccc1)NC(=O)[C@H](CCC(=O)O)NC(=O)[C@H](CCC(N)=O)NC(=O)[C@@H]1CCCN1C(=O)[C@H](C)NC(=O)[C@@H]1CCCN1C(=O)[C@@H](NC(=O)[C@@H](NC(=O)[C@@H]1CCCN1C(=O)[C@H](C)NC(=O)[C@H](CCC(N)=O)NC(=O)[C@H](CC(=O)O)NC(=O)[C@H](C)NC(=O)[C@@H]1CCCN1C(=O)[C@H](C)NC(=O)[C@H](C)NC(=O)[C@@H]1CCCN1C(=O)[C@H](C)NC(=O)[C@H](C)NC(=O)[C@@H]1CCCN1C(=O)[C@H](C)NC(=O)[C@@H](NC(=O)[C@@H](N)CC(=O)O)C(C)C)[C@@H](C)O)C(C)C)[C@@H](C)O)C(=O)N[C@H](C(=O)N[C@@H](CCCCN)C(=O)N[C@@H](CCCNC(=N)N)C(=O)O)[C@@H](C)O [Ece1-II] |  | no signs of paralysis
